# Test results as given in paper PMC10108821, “Three tyrosine kinase inhibitors cause cardiotoxicity by inducing endoplasmic reticulum stress and inflammation in cardiomyocytes” (BMC Medicine, 2023).
# How the values were obtained:
# NRCMs [1] = system: NRCMs
# Procedure: After treatment, cells were stained with 5 μg/mL Propidium iodide (Sigma-Aldrich) mixed with Hoechst33342 (Solarbio) in Phenol red-free DMEM (Procell) in a 5% CO2 incubator at 37°C for 30 minutes. Images of PI staining were acquired through the filter Ex/Em=555/624nm and of the nuclei staining through the filter Ex/Em=405/452 using ImageXpress Micro Confocal-AWES (Molecular Devices).
# NRCMs [2] = assay: qRT-PCR of fetal, pro-inflammatory and ER stress genes with pathway-selective inhibitors; type: cell-based, rat; conditions: 24 h
# Procedure: (§1) Rats were euthanized by decapitation and thoracic cavity was opened with scissors and hearts were popped out of the opening gently with fingers. Hearts were clipped and put in HBSS immediately; 20–40 hearts were collected into one sterile vial containing a magnetic stir bar and 1 mL digestive media made of 0.1% trypsin (Macklin) and 0.05% collagenase (Gibco) in HBSS. Hearts were minced until they were uniform in size. Digestive media was added to 10 mL for 40 hearts and stirred gently for 6 min. Supernatant was discarded and the digestion was repeated once; 10 mL digestive media was added and stirred gently for 10 min. The supernatant with cells were collected and the digestion and collection were repeated 4 times. Cells were centrifuged at 1200 rpm for 5 min, resuspended in media (Dulbecco’s modified Eagleʼs medium (Gibco)) with 10% fetal bovine serum (FBS; VISTECH), 1% penicillin–streptomycin, and 1% 0.1 M 5-bromo-2-deoxyuridine solution (Shanghai Yuanye) and filtered through a 40-μm cell strainer. Cells were seeded on a 100-mm plastic dish and cultured in a 5% CO2 incubator at 37 °C for 2 h to allow non-myocytes to adhere to the plate. The dish was swirled and media gently pipetted up and down to detach lightly attached cardiomyocytes. The collected myocytes were seeded in the same media described before; 48 h after plating, medium was exchanged to fresh DMEM (Gibco) with or without 2% FBS. All drug treatments were performed after this media change.
# (§2) RNA was isolated based on a standard protocol using TRIzol reagent (Vazyme). TRIzol (1ml per 1 well of a 6-well plate) was used to lyse cells and chloroform was added for RNA separation. Samples were shaked vigorously by hand for 15 seconds and incubated at room temperature for 2-3 minutes. RNA was present in the aqueous phase after centrifuge at 12000 x g for 15 minutes. Isopropyl alcohol was mixed to precipitate RNA from the aqueous phase. RNA precipitations were washed with 75% ethanol once and re-dissolved in RNase-free water. 1 μg total RNA was used for cDNA synthesis using a reverse transcription kit (Bioman). We then measured expression of genes of interest with SYBRR Green qPCR Mix (Bioman) using Applied Biosystems 7500 Quantitative PCR Instrument. Gene expression was normalized to the 18S ribosomal RNA expression and primers were listed in Primers Table.
# H9C2 cell line = assay: qRT-PCR of inflammatory genes in H9C2 cells; type: cell-based, rat; conditions: ISRIB 200 nM or salubrinal 20 μM with 3 TKIs, 24-hr
# Procedure: as §2
# H9C2 cells were a gift from Dr. Rong Qi in Peking University Health Science Center (they were originally purchased from the Cell Bank/Stem cell bank, Chinese Academy of Science). […] Media was changed to DMEM (Gibco) containing 2% FBS 12 hours before treatment. All treatments were performed under DMEM containing 2% FBS.
# Cor.4U hiPSC-CMs [3] = assay: ATP level (CellTiter-Glo) in hiPSC-CMs; type: cell-based, human
# Procedure: ATP content was measured using the CellTiter-Glo Luminescent Cell Viability Assay (Promega) following the manufacturer’s protocol. After adding CellTiter-Glo reagents and incubation, luminescence was quantified using a Synergy H1 plate reader (BioTek Instruments). ATP standards were prepared from 0.01 to 5 μM. For each drug, we fitted a four-parameter log-logistic model to calculate ED50 at day 5 (Fig S1). To rank the cellular toxicity of the eight TKIs (Fig 1T), we calculated (EC50-Cmax)/(EC50+Cmax) and arranged from the smallest to the biggest for increasing cellular toxicity.
# HELP hiPSC-CMs = assay: CardioExcyte 96 microelectrode array: base impedance and extracellular field potential; type: cell-based, human; conditions: fixed doses: 10 µM, crizotinib and ponatinib 3.16 µM; up to 24 h
# Procedure: HELP hiPSC-CMs were seeded evenly into the 96-well microelectrode array, NSP-96 0.6mm sensor plate (Nanion technologies), at 50,000 cells per well. Measurements were started after 3-5 days of culture of these cells and until the impedance and the extracellular field potential are stable. Measurements were taken a few times before drug addition, and every 30~60 minutes after the drugs were added at 2x concentration. Values were averaged from 3 wells per group. Beat rate, amplitude of impedance, base impedance and FPDc were calculated by the Cardio Excyte Control 96 software package (Nanion Technologies).
# NRCMs [4] = assay: Seahorse assay: oxygen consumption and extracellular acidification; type: cell-based, rat; conditions: 24 h; fixed doses: 10 µM, crizotinib and ponatinib 3.16 µM
# Procedure: as §1
# NRCMs were seeded evenly into the Seahorse XF96 cell culture plates (Agilent) and cultured in DMEM high glucose with 2% FBS. About 2 hours before the test, cells were moved to a non-CO2 incubator at 37 ° C and incubated for 1 hour. 1 hour prior to the test, culture media was replaced with the Seahorse Basal DMEM at 37°C (with appropriate concentration of glucose, 4mM L-glutamine, 1 mM sodium pyruvate and 1% penicillin-streptomycin solution) and incubated in a non-CO2 incubator at 37°C for 1 hour. Drugs were prepared at 8x to 10x concentrations with the corresponding seahorse media as in each well and added into ports of Seahorse XF96 cartridge plates which have been hydrated overnight. XFe96 Extracellular Flux Analyzer (Agilent) was used to measure oxygen consumption rate and extracellular acidification rate of cells with different drug treatments.
# NRCMs [5] = assay: Mitochondrial membrane potential by TMRE staining; type: cell-based, rat; conditions: 24 h of treatment
# ER stress genes in NRCMs = assay: qRT-PCR of ER stress genes in NRCMs; type: cell-based, rat
# Procedure: as §1, with “The collected myocytes were seeded in the same media described before; 48 h after plating, medium was exchanged to fresh DMEM (Gibco) with or without 2% FBS.” left out
# as §2, with “RNA precipitations were washed with 75% ethanol once and re-dissolved in RNase-free water.” left out
# [6] = system: Phospho-eIF2α, XBP1s, ATF6 (cleaved); assay: Western blot of ER stress effectors in NRCMs; type: cell-based, rat
# rat left ventricles = assay: Rat gavage cardiotoxicity model: qRT-PCR in left ventricles; type: in vivo
# NRCMs [7] = assay: Calcium staining with Calbryte 520 AM; type: cell-based, rat; conditions: 0.5 and 1 h; 10 µM afatinib, 10 µM sorafenib, 5.62 µM ponatinib
# patients = conditions: cited from earlier work
# Cor.4U hiPSC-CMs [8] = assay: 3'DGE-UMI RNAseq transcriptome of hiPSC-CMs
# Sprague-Dawley rats = assay: Rat gavage cardiotoxicity model: survival, heart and body weight
# [9] = FDA adverse event reporting system (FAERS) analysis, reporting odds ratios; conditions: July 2014 to December 2020
# [10] = high PC1 loadings, ponatinib at high dose
smiles,measurement,setting,value
O=C(COc1ccc(Cl)cc1)NC1CCC(NC(=O)COc2ccc(Cl)cc2)CC1 (centres unmarked) [ISRIB],rescue from cell death induced by sorafenib,"NRCMs [1]; ISRIB 200 nM or 4μ8c 10 μM with 10 µM sorafenib, 24-hr",had no such effect
same,"expression of Txnip, Il1b, Tnf, Nfkb1 and Il6 induced by TKIs",NRCMs [2]; ISRIB 200 nM co-treatment,"inhibited the expression of Txnip, Il1b, and Tnf to similar degrees as 4μ8c, but did not hamper the expression of Nfkb1 and Il6 as potently as 4μ8c in combination with ponatinib"
same,expression of cardiac fetal genes induced by TKIs,NRCMs [2]; ISRIB 200 nM co-treatment,inhibited the expression of cardiac fetal genes to a similar level as 4μ8c
same,"effect on Atf4, Ddit3, Xbp1s and Dnajb9 expression induced by TKIs",NRCMs [2]; ISRIB 200 nM or 4μ8c 10 μM with TKIs,inhibited Atf4 and Ddit3 significantly without affecting the XBP1s axis too much
same,expression of inflammatory genes induced by TKIs,H9C2 cell line,"blocked upregulation of inflammatory genes (Nfkb1, Il6. and Tnf) by TKIs"
Cc1ccc(C(=O)Nc2ccc(CN3CCN(C)CC3)c(C(F)(F)F)c2)cc1C#Cc1cnc2cccnn12 [ponatinib],effect on ATP levels,"Cor.4U hiPSC-CMs [3]; 0.32 to 10 µM, day 1 to day 5",dose-dependent and time-dependent reduction in ATP levels
same,dose-dependent toxicity (ATP fold changes),"Cor.4U hiPSC-CMs [3]; day 1, different doses, RNAseq conditions",dose-dependent toxicity
same,"effect on beat rate, contraction, base impedance and corrected field potential duration",HELP hiPSC-CMs,reduced beat rate and corrected field potential duration
same,basal oxygen consumption rate (OCR),NRCMs [4],trend of inhibiting basal oxygen consumption rate (OCR)
same,"maximal, spare and non-mitochondrial oxygen consumption",NRCMs [4],"inhibited maximal, spare, and non-mitochondrial oxygen consumption significantly"
same,mitochondrial membrane potential,NRCMs [5],trend of decreasing mitochondrial membrane potentials
same,expression of Dnajb9,ER stress genes in NRCMs; 24 h,most robust upregulation of Dnajb9 among the 3 TKIs
same,expression of Herpud1,ER stress genes in NRCMs; 24 h,most induced
same,"temporal activation of ER stress genes, 72 versus 24 h","ER stress genes in NRCMs; afatinib 5.62 µM, sorafenib 3.16 μM, ponatinib 1.78 μM","the ATF4 and the ATF6 axes, but not XBP1s, showed time-dependent upregulation"
same,relative activation of the three UPR branches,"ER stress genes in NRCMs; high-dose treatment, 24 h",induced activation of three axes to similar degrees
same,duration of activated eIF2α phosphorylation,[6],24 h
same,Dnajb9 expression,"rat left ventricles; day 7, 15 mg/kg",significantly increased
same,gene expression of Anp,"rat left ventricles; ponatinib 15 mg/kg, sorafenib 50 mg/kg gavage, 3 or 7 days",significant increase
same,cytosolic calcium concentration,NRCMs [7],did not cause any significant changes in calcium concentration
same,cell death,"NRCMs [1]; 24-h treatment, 10 µM afatinib, 10 µM sorafenib, 5.62 µM ponatinib",very little cell death
same,incidence of arterial occlusion events,patients,26%
same,level of cardiotoxicity based on literature reports,"patients; ref Table S1, 2, 4, 26–36",high-levels of cardiotoxicity
same,"expression of tRNA aminoacylation gene markers (SARS, GARS)",Cor.4U hiPSC-CMs [8]; Cluster 3,increased
same,expression of genes associated with heart contraction,"Cor.4U hiPSC-CMs [8]; Cluster 4, day 3 or day 5",upregulated
same,"expression of genes associated with ER stress (ATF4, NUPR1, DDIT3, TRIB3, CHAC1, SESN2, HERPUD1)",Cor.4U hiPSC-CMs [8]; [10],upregulated
same,"expression of genes related to cardiomyopathy and sarcomeric structure (MYH7, SYNPO2L, LDB3, ACTN2, MYLK3)",Cor.4U hiPSC-CMs [8]; [10],downregulated
same,death of animals,"Sprague-Dawley rats; 15 mg/kg gavage once daily, 3 or 7 days",one rat died
same,heart or body weight,"Sprague-Dawley rats; day 7, ponatinib 15 mg/kg, sorafenib 50 mg/kg gavage once daily",decreased
same,"cardiotoxicity events in FAERS, reporting odds ratios (RORs)",[9],caused the most cardiotoxicity with significant reporting odds ratios (RORs)
